The nature of data set [1]: Bile acid quantification by gas chromatography in primary rat hepatocytes. It counts as in vitro ADME. The settings on record: 6 h. Here is the method:
(§1) In parallel experiments, isolated rat hepatocytes (2×10^7 cells) and HuH-7 cells (2×10^6 cells) were incubated with 50 μM or 100 μM, respectively, of DCA, UDCA or DCA+UDCA for 6 h. Cells were washed 3 times with PBS, pH 7.4, harvested, centrifuged at 800×g for 5 min in a JS-4.0 Beckman rotor (Beckman Instruments, Inc., Schaumburg, Ill.) at 4° C., washed again, and the final pellet was flash-frozen in liquid nitrogen. Cells were then analyzed for intracellular bile acid concentrations by gas chromatography.
(§2) Bile acid quantification by gas chromatography. […] Quantification of bile acids was achieved using gas chromatography, by comparing the peak height response of the individual bile acids with the peak height response obtained from the internal standard, nordeoxycholic acid, which was added to each sample prior to bile acid extraction.

In the next data set the test system is primary rat hepatocytes. The experiment in a line: DCA-induced apoptosis, Hoechst staining, primary rat hepatocytes. It counts as cell-based. The text has this:
(§3) Cell culture and preparation of rat primary hepatocytes. Rat primary hepatocytes were isolated from male Sprague-Dawley rats (200-250 g) by collagenase perfusion as described previously (Mariash et al., J. Biol. Chem, 261, 9583-9586 (1986)). Briefly, rats were aneshtesized with phenobarbitol and the livers were perfused with 0.05% collagenase. Hepatocyte suspensions were obained by passing digested livers through 0.125 mm gauze and washing cells in modified Eagles' medium (MEM, Life Technologies, Inc., Grand Island, N.Y.). […] After isolation, hepatocytes were resuspended in William's E medium (Life Technologies, Inc., Grand Island, N.Y.) supplemented with 26 mM sodium bicarbonate, 23 mM HEPES, 0.01 U/ml insulin, 2 mM L-glutamine, 10 nM dexamethasone, 5.5 mM glucose, 100 U/ml penicillin and 100 U/ml streptomycin and then 1.0×10^6 cells were plated on 35×10 mm […] tissue culture dishes (Becton Dickinson Labware, Lincoln Park, N.J.). The cells were maintained at 37° C. in a humidified atmosphere of 5% CO2 for 3 h. Plates were then washed with medium to remove dead cells, and medium containing 10% heat-inactivated FBS (55° C. for 30 min) was added (Atlanta Biologicals, Inc., Norcross, Ga.). Aliquots of 1.0×10^5 human (HuH-7) hepatoma cells were plated on 35×10 mm tissue culture dishes (Becton Dickinson Labware) and maintained at 37° C. in Dulbecco's MEM (Atlanta Biologicals, Inc.) supplemented with 10% FBS, 100 U/ml penicillin and 100 u/ml streptomycin for 3 h prior to incubation with bile acids.
Incubation of cells with bile acids. […] The medium was gently removed at the indicated time points and scored for nonviable cells by trypan blue dye exclusion. […]
Morphological evaluation of apoptosis. […] Fluorescence was visualized with a Zeiss standard fluorescence microscope (Carl Zeiss, Inc., Thornwood, N.Y.). […] Stained nuclei were scored by blind analysis and categorized according to the condensation and staining characteristics of chromatin. […] Three fields per dish of approximately 500 nuclei were counted; mean values are expressed as the percent of apoptotic nuclei.

For the next data set, the system named is hepatocytes. The data set is described as follows: TUNEL assay in liver of rats fed bile acids. Type of data set: in vivo, rat. Particulars: 10 days. The text has this: Animals and diets. Male 160-175 gram (g) Sprague-Dawley rats (Sprague-Dawley, Indianapolis, Ind.) were maintained on a 12-hour (h) light-dark cycle and fed standard laboratory chow ad libitum for 3 days. […] On day 10, the animals were sacrificed by exsanguination under ether anesthesia between 9 a.m. and 11 a.m. The livers were removed, rinsed in normal saline, and flash-frozen in liquid nitrogen. Liver tissue samples were embedded in OCT, and 5 μm-thick cryostat sections were cut and mounted on slides. […] All animals received human care in compliance with the Guide for the Care and use of Laboratory Animals, prepared by the National Academy of Sciences (NIH Publication No. 86-23, revised 1985). Terminal transferase-mediated dUTP-digoxigenin nick end labeling (TUNEL) assay. Digoxigenin-nucleotide residues were added to 3′-OH ends of double or single-stranded DNA by terminal deoxynucleotidyl transferase. Reactions were performed according to the manufacturer's recommendations (Oncor, Inc., Gaithersburg, Md.), and the specimens were then coversliped with Permount medium (Fischer Scientific, Inc., Itasca, Ill.) prior to analysis by phase-contrast microscopy using a Nikon microscope (Nikon, Inc., Melville, N.Y.). Photographs were taken using Kodak Ektar-1000 film (Eastman Kodak Co., Rochester, N.Y.).

In another data set the test system is HuH-7 cells. The data set is described as follows: DCA-induced apoptosis, Hoechst staining, HuH-7 cells. It counts as cell-based. The settings on record: for percent of apoptotic cells: 6 h.
From the text: as §3
Incubation of cells with bile acids. Freshly isolated rat hepatocytes were cultured for 3 h as described above and then incubated with William's E medium supplemented with either 50 μM DCA, 50 μM UDCA (Sigma Chemical Co., St. Louis, Mo.), their combination, or no bile acid (control), for 2 h, 4 h, and 6 h. HuH-7 cells cultured for 3 h as described above were incubated with Dulbecco's MEM medium supplemented with either 50 μM, 100 μM, 500 μM, or 1000 μM DCA, UDCA, DCA+UDCA, or no addition (control) for 6 h and 24 h. The medium was gently removed at the indicated time points and scored for nonviable cells by trypan blue dye exclusion. The attached cells were fixed for morphologic assessment of apoptotic changes.
Morphological evaluation of apoptosis. Morphology was performed as described previously (Oberhammer et al., Proc. Natl. Acad. Sci. USA 89, 5408-5412 (1992)). Briefly, after fixation (with 4% formaldehyde in PBS, pH 7.4, for 10 min at room temperature), the cells were incubated with Hoechst dye 33258 (Sigma Chemical Co.) at 5 μg/ml in PBS for 5 min, washed with PBS and mounted with PBS:glycerol (3:1, v/v). Fluorescence was visualized with a Zeiss standard fluorescence microscope (Carl Zeiss, Inc., Thornwood, N.Y.). Photographs were taken with Kodak Ektar-1000 film (Eastman Kodak Co.). Stained nuclei were scored by blind analysis and categorized according to the condensation and staining characteristics of chromatin. Normal nuclei were identified as noncondensed chromatin dispersed over the entire nucleus. Apoptotic nuclei were identified by condensed chromatin, contiguous to the nuclear membrane, as well as nuclear fragmentation of condensed chromatin. Three fields per dish of approximately 500 nuclei were counted; mean values are expressed as the percent of apoptotic nuclei.

The nature of data set [2]: Bile acid quantification by gas chromatography in HuH-7 cells. It counts as in vitro ADME, human. Particulars: 6 h. Here is the method: as §1, §2
In a further data set the test system is HeLa cells. The data set is described as follows: Okadaic acid-induced apoptosis, HeLa cells. Type of data set: cell-based, human. The method, then: (§4) HuH-7 cells were treated with 1 nM TGF-β1, 100 μM of either hyodeoxycholic acid, taurocholic acid, tauroursodeoxycholic acid (Sigma Chemical Co.) or glycoursodeoxycholic acid (Steraloids Inc., Wilton, N.H.), or a combination of TGF-β1 plus the individual bile acids for 72 h. HeLa and Cos-7 cells were incubated with 50 nM okadaic acid, 100 μM of either tauroursodeoxycholic acid or glycoursodeoxycholic acid, or a combination of okadaic acid plus the individual bile acids for 24 h. In the combination groups, cells were pretreated with the bile acid alone for 60 min prior to incuation with TGF-β1 or okadaic acid. In all studies, the medium was gently removed at the indicated times and scored for nonviable cells. The attached cells were fixed for morphologic evaluation of apoptosis.
(§5) Morphological evaluation of apoptosis. Morphology was performed as described previously (Oberhammer et al., Proc. Natl. Acad. Sci. USA 89, 5408-5412 (1992)). […] Fluorescence was visualized with a Zeiss standard fluorescence microscope (Carl Zeiss, Inc., Thornwood, N.Y.). […] Stained nuclei were scored by blind analysis and categorized according to the condensation and staining characteristics of chromatin. […] Three fields per dish of approximately 500 nuclei were counted; mean values are expressed as the percent of apoptotic nuclei.

The test system of a further data set is Cos-7 cells. The data set is described as follows: Okadaic acid-induced apoptosis, Cos-7 cells. Type of data set: cell-based, monkey. The method, then: as §4, §5
[3] abbreviates: incubated with 50 μM DCA and UDCA combined.
[4] abbreviates: incubated with 50 μM of the individual bile acid.
Where [5] appears, read: rats fed chow with 0.4% bile acid.
Setting [6] is: coincubation with 100 μM DCA and UDCA.
[7] abbreviates: incubated with 100 μM of the individual bile acid.

The structures appear in SMILES notation.

Broadly, the cell viability is the share of living cells, or the viability signal relative to a control.

For the compound `C[C@H](CCC(=O)O)[C@H]1CC[C@H]2[C@@H]3CC[C@@H]4C[C@H](O)CC[C@]4(C)[C@H]3C[C@H](O)[C@]12C` [DCA, deoxycholic acid], the “intracellular concentration of the bile acid” value was determined as 380.3±32.0 nmol/10^8 cells in data set [1] (setting [3]), 49.5±9.9 nmol/10^8 cells in data set [1] (setting [4]), 31.7 ± 15.0 nmol in data set [2] (setting [6]) and 28.8±13.3 nmol/10^8cells in data set [2] (setting [7]). The “percentage of apoptotic cells, increase over control” value in the data set with primary rat hepatocytes (50 μM DCA, 2 h) is listed as 8 fold. Also, the “change in TUNEL-positive cells” value with hepatocytes (FIG. 1 legend, 0.4% in chow) is listed as “significant increase”. Also, in the data set with hepatocytes (setting [5]), the “increase in TUNEL-positive liver cells from control values” is around 40 fold. The “liver cells with positive nuclear staining for fragmented DNA (TUNEL)” value in the data set on hepatocytes (setting [5]) was found to be 11%. For the same compound, the “percent of apoptotic cells” value is given as 16.8% with HuH-7 cells (100 μM DCA) and 66.7% with HuH-7 cells (1000 μM DCA). Further, in the data set on HuH-7 cells (100 μM DCA, 24 h), the apoptotic cells stood at 20±2.8%. Besides, the necrosis entry in the data set with HuH-7 cells (elevated bile acid concentrations (up to 1000 μM DCA)) is “no apparent necrosis”.

On to `C[C@H](CCC(=O)O)[C@H]1CC[C@H]2[C@@H]3[C@@H](O)C[C@@H]4C[C@H](O)CC[C@]4(C)[C@H]3CC[C@]12C` [UDCA, ursodeoxycholic acid], for which the “intracellular concentration of the bile acid” value was 263.8±39.3 nmol/10^8 cells in data set [1] (setting [3]), 306.0±135.1 nmol/10^8 cells in data set [1] (setting [4]), 45.5 ± 21.5 nmol in data set [2] (setting [6]) and 204.7±97.2 nmol/10^8cells in data set [2] (setting [7]). For the same compound, the cell viability in the data set on primary rat hepatocytes (50 μM DCA + 50 μM UDCA, 6 h) came to 88.5±4.9%. In the data set with primary rat hepatocytes (inducer DCA, hepatocytes, inhibition by UDCA), the “Inhibition % Apoptosis” value is reported as 90.9 ± 4.6%. In addition, the percent apoptosis was 20.5±7.1% in the data set on HeLa cells (okadaic acid + UDCA) and 7.3±2.4% with Cos-7 cells (okadaic acid + UDCA). For the same compound, the “increase in TUNEL-positive liver cells from control values” in the data set with hepatocytes (setting [5]) is 2 fold. Also, the apoptotic cells in the data set on HuH-7 cells (100 μM DCA + UDCA combination, 24 h) was 11.5±2.1%. Further, the “increase in cell viability by coincubation with UDCA” value in the data set on HuH-7 cells (DCA + UDCA, 24 h) was 44±7.1%.

With `C=C1[C@@H](O)[C@@H]2O[C@]3(CC[C@H](/C=C/[C@@H](C)[C@@H]4CC(C)=C[C@@]5(O[C@H](C[C@@](C)(O)C(=O)O)CC[C@H]5O)O4)O3)CC[C@H]2O[C@@H]1[C@@H](O)C[C@H](C)[C@H]1O[C@@]2(CCCCO2)CC[C@H]1C` [okadaic acid], the values for the percent apoptosis in the data set on HeLa cells (okadaic acid alone) and in the data set with Cos-7 cells (okadaic acid alone) were 50.0±14.9% and 21.4±2.9%, respectively.

The values above are taken from patent publication US20030044413A1, “Methods of limiting apoptosis of cells” (Regents of the University of Minnesota, priority 1998, published 2003).
